In patent US5484801A, “Pharmaceutical composition for inhibiting HIV protease” (Abbott Laboratories, priority 1995, dated 1996):
“Also recorded” adds a separate entry of the source.

How the values were obtained:
HIV-2 protease = assay: Inhibition of HIV-2 protease; type: biochemical; conditions: statement in words
HIV-1 protease = HIV-1 protease (HIV-1 M:B_HXB2R, UniProt P04585); type: biochemical
[1] = Oral bioavailability in dogs, Protocol A (solid dosage forms); type: in vivo, beagle dogs; conditions: dog, plasma; unformulated solid in a capsule dosage form, 5 mg/kg oral dose in dogs
Description: Each dog received a single solid dosage form corresponding to a 5 mg/kg dose of the drug.

Compound | inhibition of HIV-2 protease (HIV-2 protease) | inhibition of HIV-1 protease (HIV-1 protease) | bioavailability [1] [%] | inhibition of HIV-2 protease (HIV-2 protease; listed as formula II)
CC(C)c1nc(CN(C)C(=O)N[C@H](C(=O)N[C@@H](Cc2ccccc2)C[C@H](O)[C@H](Cc2ccccc2)NC(=O)OCc2cncs2)C(C)C)cs1 [Compound III, (2S,3S,5S)-5-(N-(N-((N-Methyl-N-((2-isopropyl-4-thiazolyl)methyl)-amino)carbonyl)valinyl)amino)-2-(N-((5-thiazolyl)methoxycarbonyl)amino)-1,6-diphenyl-3-hydroxyhexane] | inhibitors | inhibitors | < 2 | 
CC(C)c1nc(CN(C)C(=O)NC(C(=O)NC(Cc2ccccc2)CC(O)C(Cc2ccccc2)NC(=O)OCc2cncs2)C(C)C)cs1 (stereo not drawn) [Compound II] | inhibitors | especially effective; also recorded: inhibitors |  | especially effective
